Test results published in article PMC5650142, “GPR40 partial agonists and AgoPAMs: Differentiating effects on glucose and hormonal secretions in the rodent” (PLoS ONE, 2017).
Where “and” joins values, the source holds several entries; their conditions need not be identical. Equal entries are not always repeated.

Key:
GK rats = experiment: GK rat acute efficacy (glucose, insulin, glucagon after single dose); type: in vivo; conditions: 10 mpk
Procedure: Ambient blood glucose was measured via tail snip with a glucometer (OneTouch Ultra, Lifescan Inc., Milpitas, CA). Body weights were then measured, and food was removed approximately 1 hr post lights on. Animals were sorted into treatment groups based on ambient glucose. At approximately 10 AM, glucose was measured and blood for insulin, glucagon, and drug exposure was collected. […] Each compound tested was dosed at its maximal effective dose determined through a series of dose titrations using this experimental paradigm (data not shown). Effects of treatment on glucose, insulin, and glucagon were measured at 1, 2, 4, and 24 hrs post dose. After the 4 hr blood collection, food was returned overnight and removed the next day at 1 hr post lights on.
Blood for insulin, glucagon, GLP-1, GIP, and PYY measurements was collected into K2EDTA Microtainer tubes (BD, Franklin Lakes, NJ) pre-treated with DPP4 inhibitor (Millipore, Billerica, MA) and cOmplete™ Protease Inhibitor Cocktail Tablets (Roche Diagnostics, Indianapolis, IN). Tubes were centrifuged for 10 minutes at 5000 RPM, and plasma was aliquotted for analysis. Plasma insulin levels were measured via EIA (Mesoscale Discovery ELISA Kit, Gaithersburg MD). Rat plasma total GLP-1 was measured using Total GLP-1 (ver.2) Assay Kit (Cat#: K150JVC). The measurement of active GLP-1 was carried out in a similar manner as that described for total GLP-1 assay with the exception that MSD Active GLP-1 (ver. 2) assay kit (Cat# K150JWC) was used. Rat plasma glucagon was measured using an in-house glucagon assay developed as a MSD format sandwich immunoassay (Merck & Co., Inc., MRL, Kenilworth, NJ USA). The antibody specificity was cross validated via mass- spec using procedures described in Lee et al. Briefly, MSD Streptavidin Gold plates were coated with 2 μg/ml biotin mouse monoclonal antibody generated to glucagon. Test samples were added to the plates and a separate Sulfo- tagged monoclonal antibody was used to detect the captured glucagon protein (2 μg/ml). The ELISA was carried out in the standard reagents in the MSD format. The plate was read on the SECTOR Imager 6000 Reader. Metabolic hormones GIP (Gastric Inhibitory Polypeptide) and PYY (Peptide YY) were measured in rat plasma using the Rat Metabolic Magnetic Bead Panel (EMD Millipore, Billerica, MA). The assay was performed according to manufacturer protocol.

[1] = system: pancreatic islets from wild type and GPR40−/− mice; experiment: Isolated pancreatic islets static GDIS assay (insulin, glucagon secretion); type: cell-based, mouse; parameters: Islet insulin / Islet insulin, mean: unit not given here; conditions: for glucagon secretion from islets: ex vivo; for Islet Glucagon / Islet insulin: individual replicates; for Islet Glucagon, mean / Islet insulin, mean: mean of replicates
Procedure: Pancreatic islets of Langerhans were isolated from wild type and GPR40^−/− mice (littermates) by collagenase digestion and discontinuous Ficoll gradient separation. […] Insulin secretion was determined by a 1-h static incubation in Krebs-Ringer bicarbonate (KRB) buffer in a 96-well format as previously described. […] The buffer was removed from the wells at the end of the incubation and assayed for insulin levels using the Insulin ELISA kit (ALPCO, Salem, NH) and glucagon level using glucagon ELISA kit (ALPCO, Salem, NH).

C[C@H](C(=O)O)[C@H](c1ccc2c(c1)O[C@H](C1CN(Cc3cc(C(F)(F)F)ccc3C(F)(F)F)C1)CC2)C1CC1 [AP3]
Plasma Glucagon Over Time (Fig 2C) (GK rats; time 0, individual animals): 19.5235 pg/mL and 95.1724 pg/mL and 78.4069 pg/mL and 68.928 pg/mL and 101.768 pg/mL and 68.1132 pg/mL and 64.8322 pg/mL and 90.2934 pg/mL
Plasma Insulin Over Time (Fig 2B) (GK rats; time 0, individual animals): 1.335 ng/mL and 3.288 ng/mL and 2.57 ng/mL and 2.616 ng/mL and 1.578 ng/mL and 2.696 ng/mL and 1.845 ng/mL and 1.5169 ng/mL
Plasma Glucagon Over Time (Fig 2C) (GK rats; time 1, individual animals): 91.082 pg/mL and 337.393 pg/mL and 327.979 pg/mL and 373.532 pg/mL and 338.805 pg/mL and 110.666 pg/mL and 312.795 pg/mL and 175.651 pg/mL
Plasma Insulin Over Time (Fig 2B) (GK rats; time 1, individual animals): 7.035 ng/mL and 11.786 ng/mL and 10.5354 ng/mL and 9.1461 ng/mL and 4.564 ng/mL and 7.402 ng/mL and 7.0553 ng/mL and 5.184 ng/mL
Plasma Glucagon Over Time (Fig 2C) (GK rats; time 2, individual animals): 309.053 pg/mL and 291.695 pg/mL and 285.862 pg/mL and 322.143 pg/mL and 116.312 pg/mL and 40.1476 pg/mL and 259.365 pg/mL and 215.877 pg/mL
Plasma Insulin Over Time (Fig 2B) (GK rats; time 2, individual animals): 3.782 ng/mL and 3.3115 ng/mL and 3.493 ng/mL and 3.854 ng/mL and 1.215 ng/mL and 0.8625 ng/mL and 2.2798 ng/mL and 2.163 ng/mL
Plasma Glucagon Over Time (Fig 2C) (GK rats; time 4, individual animals): 120.787 pg/mL and 261.082 pg/mL and 116.805 pg/mL and 218.976 pg/mL and 231.061 pg/mL and 206.193 pg/mL and 151.031 pg/mL and 315.618 pg/mL
Plasma Insulin Over Time (Fig 2B) (GK rats; time 4, individual animals): 3.033 ng/mL and 3.537 ng/mL and 3.038 ng/mL and 2.421 ng/mL and 1.582 ng/mL and 1.483 ng/mL and 2.06 ng/mL and 1.86 ng/mL
Plasma Glucagon Over Time (Fig 2C) (GK rats; time 24, individual animals): 114.227 pg/mL and 80.8254 pg/mL and 201.451 pg/mL and 177.87 pg/mL and 103.778 pg/mL and 114.567 pg/mL and 171.755 pg/mL and 119.088 pg/mL
Plasma Insulin Over Time (Fig 2B) (GK rats; time 24, individual animals): 1.556 ng/mL and 1.426 ng/mL and 1.797 ng/mL and 1.415 ng/mL and 0.6908 ng/mL and 1.576 ng/mL and 1.455 ng/mL and 1.848 ng/mL
glucagon secretion from islets ([1]; GPR40-/- mouse islets): abolished
Islet Glucagon ([1]; KO mouse islets, G2, 1uM): 25.089 pg/ml/ islet and 11.858 pg/ml/ islet and 9.721 pg/ml/ islet and 3.205 pg/ml/ islet and 12.4 pg/ml/ islet and 14.931 pg/ml/ islet and 18.163 pg/ml/ islet and 18.456 pg/ml/ islet and 21.346 pg/ml/ islet and 15.13 pg/ml/ islet
Islet insulin ([1]; KO mouse islets, G2, 1uM): 0.293 and 0.272 and 0.213 and 0.106 and 0.37 and 0.44 and 0.27 and 0.128 and 1.077 and 0.675
Islet Glucagon, mean ([1]; KO mouse islets, G2, 1uM): 15.0299 pg/ml/ islet
Islet insulin, mean ([1]; KO mouse islets, G2, 1uM): 0.3844
Islet Glucagon ([1]; KO mouse islets, G16, 1uM): 4.043 pg/ml/ islet and 5.474 pg/ml/ islet and 8.717 pg/ml/ islet and 11.984 pg/ml/ islet and 16.06 pg/ml/ islet and 18.271 pg/ml/ islet and 3.382 pg/ml/ islet and 7.691 pg/ml/ islet and 7.902 pg/ml/ islet and 2.338 pg/ml/ islet
Islet insulin ([1]; KO mouse islets, G16, 1uM): 5.28 and 3.491 and 4.033 and 2.378 and 3.966 and 1.757 and 3.131 and 3.522 and 3.781 and 3.035
Islet Glucagon, mean ([1]; KO mouse islets, G16, 1uM): 8.5862 pg/ml/ islet
Islet insulin, mean ([1]; KO mouse islets, G16, 1uM): 3.4374
Islet Glucagon ([1]; WT mouse islets, G2, 1uM): 38.183 pg/ml/ islet and 99.219 pg/ml/ islet and 47.629 pg/ml/ islet and 35.059 pg/ml/ islet and 41.718 pg/ml/ islet and 44.978 pg/ml/ islet and 113.083 pg/ml/ islet and 70.443 pg/ml/ islet and 44.123 pg/ml/ islet and 60.974 pg/ml/ islet
Islet insulin ([1]; WT mouse islets, G2, 1uM, listed as L-005427846): 1.34 and 1.9735 and 0.61 and 0.65 and 0.79 and 1.22 and 0.9145 and 1.416 and 1.5465 and 1.2555
Islet Glucagon, mean ([1]; WT mouse islets, G2, 1uM): 59.5409 pg/ml/ islet
Islet insulin, mean ([1]; WT mouse islets, G2, 1uM): 1.1716
Islet Glucagon ([1]; WT mouse islets, G16, 1uM): 19.839 pg/ml/ islet and 16.487 pg/ml/ islet and 37.465 pg/ml/ islet and 8.951 pg/ml/ islet and 23.354 pg/ml/ islet and 22.21 pg/ml/ islet and 33.167 pg/ml/ islet and 31.559 pg/ml/ islet and 48.792 pg/ml/ islet
Islet insulin ([1]; WT mouse islets, G16, 1uM, listed as L-005427846): 11.936 and 11.639 and 13.085 and 12.097 and 12.133 and 11.613 and 12.28 and 12.692 and 11.465 and 12.253
Islet Glucagon, mean ([1]; WT mouse islets, G16, 1uM): 26.8693 pg/ml/ islet
Islet insulin, mean ([1]; WT mouse islets, G16, 1uM): 12.1193
glucagon secretion from islets ([1]; WT mouse islets): significantly elevated
